Test results published in patent US7977364B2, “Indazoles, benzisoxazoles and benzisothiazoles and their use as estrogenic agents” (Laboratoire Thermamex, priority 2004, dated 2011).
Read-outs that look alike come from different tables or passages of the source.

Columns and labels:
rats = assay: Forced swimming test (antidepressant activity, immobility duration); assay type: in vivo, rat
Source text: Antidepressant effect of estradiol was recently reported in studies using ER β KO mice model. In addition, ER β localization in dorsal raphe nucleus area in rat has been described. The gold standard test for antidepressant potency of compound consist in the forced swimming test, in this experiment antidepressants could be distinguished from psychostimulants which decreased immobility at doses which increased general activity. In order to investigate the putative antidepressant potency of the compounds reported here, the forced swimming test was performed according to the following design. The animals were housed six per cage under standard colony conditions, with a 12 h light/dark cycle and ad libitum food and water. They were allowed to acclimatize to the colony for at least 7 days prior to any experimentation. For subcutaneous administration, the compound of Example 23 was dissolved in olive oil and diluted to the desired concentration on the day of administration. For positive control, intraperitoneal (i.p.) injection of desipramine was done. Desipramine was dissolved in double-distilled water (10 mg/kg). The experiments were conducted 30 min after the positive control drug treatment (only for desipramine treatment). Other compounds, ie: estradiol and the compound of Example 23 were daily injected subcutaneously in rats, during a 7 days period. Acquisition were performed on day 8 (24 h after the last administration of items) and day 9 (48 h after estradiol or compound 23 administration), respectively. Data acquired 24 hours after the last administration consisted in the “naïve animal group”, these animals had never been previously tested in the device. Data acquired 48 hours after a last administration of compounds consisted in “trained animal group”.
On the 8th, the forced swim test was performed. This study was carried out in rats according to the methods described by Porsolt (Eur. J. Pharm., 1978). Briefly, rats were placed individually in glass cylinders (height: 40 cm, diameter: 18 cm) containing 25 cm of water at 25° C. Ten minutes later, rats were removed and dried before being returned to their home cages. The animals were replaced in the cylinders 24 h later, and the procedure was repeated, and a 10-min observation period was recorded.

Prepubescent female rats = assay: Estrogenic / uterotrophic activity in vivo (uterus wet weight); design: species or system rat; details: for change in vivo at 3 mg: orally 3 mg/rat/day for 3 days
Procedure, shortened: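 Prepubescent female rats dosed orally for 3 days at 3 mg/rat/day, or at 0.3, 1, 3 or 10 mg/rat/day. Uteri removed the following day and wet-weighed; values given as % stimulation of uterine weight over vehicle.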

In the case of Oc1ccc2c(C3CCCC3)n[nH]c2c1 [Ex 23, 3-cyclopentyl-1H-indazol-6-ol], the “immobility duration, Naïve animals” value (rats; 2.8 mg/rat/day s.c. 7 days, 24 h after last administration, 10 minutes test) was 45.2 ± 15.6 s, the “immobility duration, Trained animals” value (rats; 2.8 mg/rat/day s.c. 7 days, 48 h after last administration, 10 minutes test) was 160.7 ± 44.1 s and the “antidepressor activity, animals first-in-the-test” value (rats; 24 h after administration, in words) was “exhibited a antidepressor activity”. For the same compound, the “antidepressor potency, trained animal group” value (rats; 48 h after administration, in words) was “disappeared”, the change in vivo at 3 mg (Prepubescent female rats; Rattus norvegicus, po, 72 h, Table 4, read-out: % stimulation vs vehicle (uterus weight)) was 12% and the change in vivo at 0.3 mg (Prepubescent female rats; Rattus norvegicus, po, 72 h, Table 5, orally 0.3 mg/rat/day for 3 days, read-out: % stimulation vs vehicle (uterus weight)) was -13%. For the same compound, the change in vivo at 1 mg (Prepubescent female rats; Rattus norvegicus, po, 72 h, Table 5, orally 1 mg/rat/day for 3 days, read-out: % stimulation vs vehicle (uterus weight)) was -5%, the change in vivo at 3 mg (Prepubescent female rats; Rattus norvegicus, po, 72 h, Table 5, read-out: % stimulation vs vehicle (uterus weight)) was -4% and the change in vivo at 10 mg (Prepubescent female rats; Rattus norvegicus, po, 72 h, Table 5, orally 10 mg/rat/day for 3 days, read-out: % stimulation vs vehicle (uterus weight)) was 20%. The “in vivo estrogenic activity after oral administration” value (Prepubescent female rats; in words) was “weak in vivo estrogenic activity” and the “uterotrophicity after oral administration” value (Prepubescent female rats; up to a 3 mg/animal/day dosage, in words) was “lack of uterotrophicity”.
